The text below walks through data of US4594238A (Regents of University of Minnesota, priority 1984, dated 1986).

The conditions of data set [1]: mannitol diuresis coupled with intravenous prehydration, humans; cited from earlier work.
The conditions of data set [2]: mannitol diuresis coupled with intravenous prehydration, dogs; cited from earlier work.
The conditions of data set [3]: cited from earlier work.
Data set [4] in a line: Urinary excretion of free and conjugated DDTC. In kind it is in vivo, rats. The conditions noted are these: rat, urine, ip, 500 mg/kg, NaDDTC 500 mg/kg ip. An excerpt:
Intravenous administration was explored in an attempt to deliver larger quantities of free DDTC anion to the likely site of toxicity in the renal tubule; urinary excretion of DDTC was monitored as a means of estimating changes in tubular levels of free DDTC. The standard assay for DDTC anion utilizes a spectrophotometric determination following reaction with cupric ion to form the colored Cu(DDTC)2 complex. Unfortunately, the affinity of cupric ion for sulfur ligands is such that this metal ion will catalyze the decomposition of the DDTC glucuronide and therefore will not discriminate between free and conjugated DDTC. Ferric ion does react selectively with the free ligand, thereby providing a convenient assay for both free and total DDTC in urine.
Excretion of free and conjugated NaDDTC in the urine of rats was measured as follows. NaDDTC was administered in selected doses via intraperitoneal or intravenous injection. Rats were then placed in metabolic cages and urine was collected and analyzed at 30 minute intervals. Urine samples (0.1-5.0 ml) were added to 2 ml of a solution containing ferric nitrate (20 mM) and sodium citrate (200 mM). The dark Fe (DDTC)3 complex was extracted into chloroform (4 ml) by vortexing for 5 minutes. The mixture was chilled, centrifuged for 1 minute, and the chloroform layer separated. To this chloroform solution was added saturated aqueous cupric sulfate (2 ml), and the mixture was vortexed for 5 minutes, chilled, and centrifuged for 1 minute. The chloroform solution was separated and the Cu(DDTC)2absorbance measured at 435 nm. Free DDTC was determined by comparison of absorbance to a standard curve. Total DDTC was determined by addition of 0. 05-1.0 ml of urine to 3 ml of saturated cupric sulfate followed by incubation at 45° for 30 minutes. The resulting Cu(DDTC)2 complex was extracted into chloroform and analyzed as described above. DDTC-glucuronide excretion was determined by subtraction of free from total DDTC.

The conditions of data set [5]: rats; cited from earlier work.
For data set [6] the following is noted: after DDP; cited from earlier work.
The nature of data set [7]: Platinum excretion kinetics / platinum accumulation after DDP. In kind it is in vivo. The conditions noted are these: four rats. The procedure: Platinum excretion kinetics were measured in four animals by measuring urinary platinum levels every 30 minutes for 4 hours and then every 2 hours for an additional 12 hours. Urinary platinum concentration declined to <10% of maximal concentration within 1.5 hours and >95% of the platinum excreted by the kidneys had appeared in the urine by this time.

The test system of data set [8] is Rat mammary tumor 13762. Description: Comparative tumor response to DDP with and without NaDDTC rescue, Example 2. In kind it is in vivo, Female F344 (Fischer) rats. The procedure: Female F344 (Fischer) rates, initial weight 100-150 g, were obtained from the Charles River Breeding Laboratory, Wilmington, MA. They were housed in methacrylate cages and given Purina rat chow and water ad libitum for at least one week. Lean weight of the rats were 150 g at the onset of experiments unless otherwise noted.
Mammary Tumor 13762 was obtained in the form of an implanted tumor in a female F344 rat. All intravenous injections were carried out under brief ether anesthesia.
Tumor inoculation was carried out as follows: two rats bearing tumors having a mean diameter of 2.5-3.5 cm were sacrificed using ether anesthesia. The tumors were excised immediately, finely minced, combined, and resuspended in 20-40 ml of normal saline. This suspension was filtered through a gauze pad to remove coarse pieces of tissue and the resulting suspension inoculated subcutaneously (0.2-0.5 ml/injection) into the left flank of each rat.

Read-outs that look alike come from different tables or passages of the source.

As for `OC[C@@H](O)[C@@H](O)[C@H](O)[C@H](O)CO` [mannitol], the “Amelioration of acute platinum toxicity” value in data set [1] and in data set [2] was “ameliorate acute toxicity” each time.

In the case of `CCN(CC)C(=S)[S][Na]`, the Solubility in alcohol entry in data set [3] (alcohol) is listed as “also soluble in alcohol”. Further, the Solubility in water entry in data set [3] (water) is “highly soluble in water, e.g. in molar quantities”. The dose excreted at 2 h is less than 0.1% in data set [4] (within 2 hours, read-out: Free ligand in urine, of the initial dose) and 18 to 20% in data set [4] (read-out: Total DDTC excreted by the kidneys within 2 hours, of the dose given). For the same molecule, the LD50 result in data set [5] is recorded as “at least 1,500 mg/kg”.

Regarding `N.N.[Cl][Pt][Cl]` [DDP, cis-dichlorodiammineplatinum(II), reference compound], in data set [6], the “Time of maximal platinum accumulation (renal tubule)” value was 30 to 60 min. Also, in data set [7], the “Fraction of kidney-excreted platinum in the urine by […]” value is greater than 95% and the “Urinary platinum concentration within […], of maximal concentration” value is recorded as less than 10%. Further, in data set [8] (DDP 2 mg/kg i.v., control, n=8), the “Other (non-relapsed) rats through day 50” value is “essentially free of tumor through day 50”; the “Rats with relapse between days 25 and 30” value is given as 2/8. Besides, in data set [8] (DDP 2 mg/kg without rescue), the “Rats bearing tumors at day 24” value was 6/8 and the “Tumor-free rats at day 24” value is 2/8. Further, in data set [8] (DDP 2 mg/kg without rescue, six rats), the “Mean tumor diameter at day 30” value stood at 2.4 cm. The “Mean minimum tumor diameter” value in data set [8] (DDP 2 mg/kg without rescue, six tumor-bearing rats, day 24) is 1.6 cm. Further, the “Tumor-free rats by day 28” value in data set [8] (DDP 8 mg/kg, unrescued) is 3/8. Further, in data set [8] (after DDP), the “Animals with spontaneous relapse at the original site” value is recorded as 25-75%. In data set [8] (rat, in vivo), the “Time of spontaneous relapse after DDP administration” value was “approximately 15 days”.
